Measured values as given in paper PMC6152667, “Synthesis and Evaluation of Antimicrobial Activity of [R4W4K]-Levofloxacin and [R4W4K]-Levofloxacin-Q Conjugates” (Molecules : A Journal of Synthetic Chemistry and Natural …, 2017).
In brackets after ≈: the same amount, converted by molar mass. Like-named read-outs stand apart in the source and are kept apart here. Side chains are listed from the residue outwards. Peptide text beside a SMILES is read from it. * marks the point of attachment. Levofloxacinoyl = C[C@H]1COc2c(N3CCN(C)CC3)c(F)cc3c(=O)c(C(=O)*)cn1c23; X1 = C[C@H]1COc2c(F)c(F)cc3c(=O)c(C(=O)*)cn1c23; βAla = NCCC(=O)O

Key:
[1] = test system: Methicillin-Resistant Staphylococcus aureus (Los Angeles County (LAC) clone); test: microbe, parasite or virus in culture; type: cell-based; conditions: for MIC: Staphylococcus aureus, MRSA, read-out: MIC, Methicillin-Resistant Staphylococcus aureus (MRSA)
Protocol: (§1) The antibacterial activities of synthesized peptides were evaluated against two bacterial strains and compared to a control antibiotic and [R4W4]. Gram-negative bacteria: Klebsiella pneumoniae (Clinical strain (levofloxacin-susceptible)) and the Gram-positive bacteria: Methicillin-Resistant Staphylococcus aureus (Los Angeles County (LAC) clone) were employed for the determination of antimicrobial activities of peptides. MRSA and Klebsiella pneumoniae were inoculated into 5 mL of Mueller Hinton […] (MH) at 37 °C and shaken in an orbital shaker at 175 rpm overnight. The cultured suspension was diluted in 5 mL normal saline until it achieved 0.5 McFarland (1.5 × 10^8 bacterial cell density) turbidity. An amount of 40 μL of the McFarland solution was added to […] of MH media to make 1/150 dilution. Most peptides were dissolved in distilled water (except some of them that were dissolved in 50 mM NH4HCO3 to improve the solubility) to make 256 μg/mL solutions. Minimal inhibitory concentrations (MICs) were determined using the broth microdilution method. Briefly, 200 μL of all tested peptides and controls was added in the first column of the 96-well plate. Then, by adding 100 μL of media to the other wells and performing a 2-fold dilution in each well, serial dilution of the compound was prepared. After a series of 2-fold dilutions, 100 μL of bacterial solution was added to all wells, and then the microliter plates were incubated statically at 37 °C overnight. MICs were determined as the minimal concentration at which no visible bacterial growth was present. All experiments were conducted in triplicate.

[2] = test system: Klebsiella pneumoniae (Clinical strain (levofloxacin-susceptible)); test: microbe, parasite or virus in culture; type: cell-based; conditions: for MIC: Klebsiella pneumoniae
Protocol: as §1

[3] = test system: Methicillin-resistant Staphylococcus aureus (MRSA); design: method as in PMID 25157458; conditions: previously reported; cited from earlier work
Text: The development of a new class of antibiotics to fight bacterial resistance is a time-consuming effort associated with high-cost and commercial risks. Thus, modification, conjugation or combination of existing antibiotics to enhance their efficacy is a suitable strategy. […] Herein, we hypothesized that conjugation or combination of the amphiphilic cyclic peptide [R4W4] with levoflox ... || Antimicrobial peptides (AMPs) are vital parts of the innate immune system, which usually act at the level of the plasma membrane of the bacterial cell. AMPs have a unique mode of action, which is mostly related to their cationic and amphipathic properties, making them capable of interacting with microbial membranes. Accordingly, AMPs have attracted increasing attention as potential candidates against resistant bacteria. […] T ...

Escherichia coli = test system: Escherichia coli; design: method as in PMID 25157458; conditions: previously reported; cited from earlier work
[4] = broth microdilution, Mueller Hinton media, 2-fold dilutions, 37 °C overnight, no visible growth, triplicate, N/A = not active
[5] = Clinical strain (levofloxacin-susceptible)
[6] = broth microdilution, Mueller Hinton media, 2-fold dilutions, 37 °C overnight, no visible growth, triplicate, N/A = not active, listed as levofloxacin-Q

Compound: C[C@H]1COc2c(F)c(F)cc3c(=O)c(C(=O)NCCC(=O)NCCCC[C@@H]4NC(=O)[C@H](Cc5c[nH]c6ccccc56)NC(=O)[C@H](Cc5c[nH]c6ccccc56)NC(=O)[C@H](Cc5c[nH]c6ccccc56)NC(=O)[C@H](Cc5c[nH]c6ccccc56)NC(=O)[C@H](CCCNC(=N)N)NC(=O)[C@H](CCCNC(=N)N)NC(=O)[C@H](CCCNC(=N)N)NC(=O)[C@H](CCCNC(=N)N)NC4=O)cn1c23 (cyclo(K([βAla-X1])RRRRWWWW))
- MIC, Methicillin-Resistant Staphylococcus aureus (MRSA) [1, 4]: 8 µg/mL (≈ 4.37 µM)
- MIC, Klebsiella pneumoniae [2, 4]: 32 µg/mL (≈ 17.5 µM)

Compound: C[C@H]1COc2c(N3CCN(C)CC3)c(F)cc3c(=O)c(C(=O)NCCC(=O)NCCCC[C@@H]4NC(=O)[C@H](Cc5c[nH]c6ccccc56)NC(=O)[C@H](Cc5c[nH]c6ccccc56)NC(=O)[C@H](Cc5c[nH]c6ccccc56)NC(=O)[C@H](Cc5c[nH]c6ccccc56)NC(=O)[C@H](CCCNC(=N)N)NC(=O)[C@H](CCCNC(=N)N)NC(=O)[C@H](CCCNC(=N)N)NC(=O)[C@H](CCCNC(=N)N)NC4=O)cn1c23 [Conjugate cyclic [R4W4]-levofloxacin (8)] (cyclo(K([βAla-Levofloxacinoyl])RRRRWWWW))
- MIC, Methicillin-Resistant Staphylococcus aureus (MRSA) [1, 4]: 32 µg/mL (≈ 16.7 µM)

Compound: C[C@H]1COc2c(N3CCN(C)CC3)c(F)cc3c(=O)c(C(=O)NCCC(=O)NCCCC[C@H](N)C(=O)N[C@@H](CCCNC(=N)N)C(=O)N[C@@H](CCCNC(=N)N)C(=O)N[C@@H](CCCNC(=N)N)C(=O)N[C@@H](CCCNC(=N)N)C(=O)N[C@@H](Cc4c[nH]c5ccccc45)C(=O)N[C@@H](Cc4c[nH]c5ccccc45)C(=O)N[C@@H](Cc4c[nH]c5ccccc45)C(=O)N[C@@H](Cc4c[nH]c5ccccc45)C(=O)O)cn1c23 [Conjugate linear (R4W4)-levofloxacin (6)] (H-K([βAla-Levofloxacinoyl])RRRRWWWW-OH)
- MIC, Methicillin-Resistant Staphylococcus aureus (MRSA) [1, 4]: 64 µg/mL (≈ 33.2 µM)
- MIC, Klebsiella pneumoniae [2, 5]: >128 µg/mL

Compound: C[C@H]1COc2c(N3CCN(C)CC3)c(F)cc3c(=O)c(C(=O)O)cn1c23 [Levofloxacin (1), Levofloxacin]
- MIC [1, 4]: 2 µg/mL (≈ 5.53 µM)
- MIC, Methicillin-Resistant Staphylococcus aureus (MRSA) [1, 4]: 2 µg/mL (≈ 5.53 µM)
- MIC [2, 4]: 4 µg/mL (≈ 11.1 µM)
- MIC, Klebsiella pneumoniae [2, 4]: 4 µg/mL (≈ 11.1 µM)

Compound: C[C@H]1COc2c(F)c(F)cc3c(=O)c(C(=O)O)cn1c23 [Levofloxacin-Q (2), Levofloxacin-Q acid]
- MIC, Methicillin-Resistant Staphylococcus aureus (MRSA) [1, 4]: >128 µg/mL
- MIC, Methicillin-Resistant Staphylococcus aureus (MRSA) [1, 6]: > 128 µg/mL
- MIC, Klebsiella pneumoniae [2, 4]: >128 µg/mL
- MIC, Klebsiella pneumoniae [2, 6]: > 128 µg/mL

Compound: C[C@@H](O)[C@H]1C(=O)N2C(C(=O)O)=C(S[C@@H]3CN[C@H](C(=O)N(C)C)C3)[C@H](C)[C@H]12 [Meropenem]
- MIC [2, 4]: 1 µg/mL (≈ 2.61 µM)

Compound: CN[C@H](CC(C)C)C(=O)N[C@H]1C(=O)N[C@@H](CC(N)=O)C(=O)N[C@H]2C(=O)N[C@H]3C(=O)N[C@H](C(=O)N[C@H](C(=O)O)c4cc(O)cc(O)c4-c4cc3ccc4O)[C@H](O)c3ccc(c(Cl)c3)Oc3cc2cc(c3O[C@@H]2O[C@H](CO)[C@@H](O)[C@H](O)[C@H]2O[C@H]2C[C@](C)(N)[C@H](O)[C@H](C)O2)Oc2ccc(cc2Cl)[C@H]1O [Vancomycin]
- MIC [1]: 1 µg/mL (≈ 0.69 µM)

Compound: N=C(N)NCCC[C@@H]1NC(=O)[C@H](CCCNC(=N)N)NC(=O)[C@H](CCCNC(=N)N)NC(=O)[C@H](Cc2c[nH]c3ccccc23)NC(=O)[C@H](Cc2c[nH]c3ccccc23)NC(=O)[C@H](Cc2c[nH]c3ccccc23)NC(=O)[C@H](Cc2c[nH]c3ccccc23)NC(=O)[C@H](CCCNC(=N)N)NC1=O [[R4W4] (3)] (cyclo(RRRRWWWW))
- MIC, Methicillin-Resistant Staphylococcus aureus (MRSA) ([1]; Methicillin-Resistant (Los Angeles County (LAC) clone)): 4 µg/mL (≈ 2.92 µM)
- MIC, Klebsiella pneumoniae [2, 5]: 16 µg/mL (≈ 11.7 µM)
- MIC against MRSA [3]: 2.97 µg/mL

Compound: CN(C)[C@@H]1C(O)=C(C(N)=O)C(=O)[C@@]2(O)C(O)=C3C(=O)c4c(O)cccc4[C@@](C)(O)[C@H]3C[C@@H]12 [tetracycline]
- MIC against MRSA [3]: 0.5 µg/mL
- MIC against Escherichia coli (Escherichia coli): 2 µg/mL (≈ 4.5 µM)
